Source: patent US6946125B2, “Methods of treating West Nile virus infection” (The New York Hospital Medical Center of Queens, priority 2000, dated 2005)

Assays:
[1] = test system: green monkey kidney cells; experiment: Cytotoxic effect of ribavirin in cell culture; type: cell-based
Method: (§1) In vitro: Studies have been conducted utilized a bovine kidney cell monolayer infected with a strain of WNV isolated from mosquitoes and birds in Connecticut. Cytotoxicity was assayed by measuring the decrease in release of lactate dehydrogenase from infected cells, as compared with uninfected controls.

mice [2] = conditions: cited from earlier work
[3] = after 600 mg given every 6 hours; cited from earlier work
[4] = cited from earlier work
mice [5] = experiment: Mutagenicity of ribavirin in mice; conditions: from mice
West Nile virus (WNV) = experiment: Suppression of West Nile virus in Vero cell culture, colorimetric assay of cellular lactic dehydrogenase (O.D. 490); conditions: for Mean O.D. 490 value: Vero cells
Method: The vertical axis represents a colorimetric assay of cellular lactic dehydrogenase which is directly proportional to cell viability and proliferation.
as §1

NC(=O)c1ncn([C@@H]2O[C@H](CO)[C@@H](O)[C@H]2O)n1 [Ribavirin, 1-β-D-ribofuranosyl-1H-1,2,4-triazole-3-carboxamide, reference compound]
concentration at which a cytotoxic effect occurred [1]: 600 to 1000 µM | dose known to be mutagenic (mice [2]): 20 to 200 mg/kg | concentration in human serum [3]: 1 µg/mL | dose at which inhibition of erythrocyte release from bone marrow occurs ([4]; high doses): 30 mg/kg | reduction from baseline hematocrit ([4]; human, in vivo): ≤ 20% | reduction in baseline hemoglobin ([4]; human, in vivo): 10-12% | toxicity (in words) ([4]; human, in vivo): hemolysis | Bioavailability ([4]; patients with renal dysfunction): increased | teratogenicity ([4]; should not be given during, or within 6 months of pregnancy): teratogenic | estimated human equivalent of mutagenic dose (mice [5]): 1.67 to 16.7 mg/kg | Mean O.D. 490 value (West Nile virus (WNV); Ribavirin 0.2 uM applied 2 hours prior to infection of cells with WNV): 0.72c | Mean O.D. 490 value (West Nile virus (WNV); Ribavirin 0.3 uM applied 2 hours prior to infection of cells with WNV): 1.11a | Mean O.D. 490 value (West Nile virus (WNV); Ribavirin 0.4 uM applied 2 hours prior to infection of cells with WNV): 1.24b | Mean O.D. 490 value (West Nile virus (WNV); Ribavirin 0.5 uM applied 2 hours prior to infection of cells with WNV): 1.24b | Mean O.D. 490 value (West Nile virus (WNV); Ribavirin 0.6 uM applied 2 hours prior to infection of cells with WNV): 1.06a | concentration protective or prophylactic against infection (West Nile virus (WNV); WNV infection of bovine kidney cells in vitro): 400 µM | concentration that suppressed viral replication (West Nile virus (WNV); applied after infection): 500 µM | activity in vitro against WNV infection (West Nile virus (WNV); bovine kidney cells): active | protective concentration expressed as mass concentration (West Nile virus (WNV); equivalent of 400 uM): approximately 100 ug/ml
